Our source for the IC50 values is BindingDB's records for patent US11214574 (Prelude Therapeutics, Incorporated, 2022).

As usually defined, the IC50 is the midpoint of a concentration-inhibition curve. A low value points to greater potency in that assay.

SMILES strings stand for the structures.

For this test, the target named is Methylosome protein 50/Protein arginine N-methyltransferase 5 (Homo sapiens, UniProt O14744+Q9BQA1). Kind of test: Biochemical Assay. On the procedure:
Compounds were solubilized and 3-fold diluted in 100% DMSO. […] Standard reactions were performed in a total volume of 30 μl in assay buffer, with 300 nM histone H4 based AcH4-23 (Anaspec: AS-65002) as substrate. To this was added the PRMT5/MEP50 complex diluted to provide a final assay concentration of 2.5 nM and the compounds were allowed to preincubate for 20 minutes at 37° C. The reaction was initiated by adding S-[3H-methyl]-adenosyl-L-methionine (PerkinElmer: NET155001MC) to final concentration of 1 μM. Following a 30 minutes incubation at 37° C., the reaction was stopped by adding 25 μL of 8M Guanidine HCl. Prepare streptavidin YSI SPA beads (Perkinelmer: RPNQ0012) at 0.3 mg/mL in assay buffer. To each reaction, add 150 μL of SPA beads suspension, and incubated while shaking at room temperature for 30 minutes. The plate was centrifuged at 100×g for 30 second before reading in a scintillation counter. IC50 values were determined by fitting the data to the standard 4 parameters with Hill Slope using GraphPad Prism software.

Methylosome protein 50/Protein arginine N-methyltransferase 5, sequence (O14744 whole entry): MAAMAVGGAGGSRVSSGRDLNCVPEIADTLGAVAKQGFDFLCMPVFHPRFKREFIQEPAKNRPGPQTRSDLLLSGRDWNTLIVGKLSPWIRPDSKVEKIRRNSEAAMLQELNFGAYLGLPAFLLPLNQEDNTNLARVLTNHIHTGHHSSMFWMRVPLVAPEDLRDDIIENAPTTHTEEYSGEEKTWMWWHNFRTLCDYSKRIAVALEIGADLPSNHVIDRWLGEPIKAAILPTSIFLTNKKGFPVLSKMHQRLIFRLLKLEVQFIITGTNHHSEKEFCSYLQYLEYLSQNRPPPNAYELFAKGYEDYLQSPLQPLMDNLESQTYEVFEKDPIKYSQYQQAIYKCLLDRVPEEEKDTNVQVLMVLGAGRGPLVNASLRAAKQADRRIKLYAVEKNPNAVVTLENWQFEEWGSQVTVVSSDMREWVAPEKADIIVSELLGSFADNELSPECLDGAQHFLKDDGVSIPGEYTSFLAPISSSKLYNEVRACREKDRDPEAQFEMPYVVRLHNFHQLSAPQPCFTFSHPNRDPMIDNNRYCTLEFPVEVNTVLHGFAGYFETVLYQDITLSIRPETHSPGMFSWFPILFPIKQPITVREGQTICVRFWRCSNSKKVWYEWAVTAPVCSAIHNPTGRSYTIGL
Methylosome protein 50/Protein arginine N-methyltransferase 5, sequence (Q9BQA1 whole entry): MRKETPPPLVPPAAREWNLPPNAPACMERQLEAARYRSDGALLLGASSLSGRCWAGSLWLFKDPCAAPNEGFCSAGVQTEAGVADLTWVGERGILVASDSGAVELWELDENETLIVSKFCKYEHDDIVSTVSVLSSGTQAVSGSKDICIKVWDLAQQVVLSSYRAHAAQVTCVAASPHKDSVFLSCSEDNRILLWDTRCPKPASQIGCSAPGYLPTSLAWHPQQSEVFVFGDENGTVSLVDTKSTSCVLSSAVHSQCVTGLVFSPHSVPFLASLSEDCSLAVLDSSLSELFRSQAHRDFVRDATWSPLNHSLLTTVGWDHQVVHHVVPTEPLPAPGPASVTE

On to `Nc1ncnc2c1ccn2[C@@H]1O[C@H]([C@H]2OC(=O)c3cc(Cl)ccc32)[C@@H](O)[C@H]1O` [US11214574, Ex# 1B], for which the concentration for half-maximal inhibition (IC50) came out at 270 nM.
